Measured values published in patent publication US20240262815A1, “HETEROARYL DERIVATIVE, METHOD FOR PREPARING SAME, AND PHARMACEUTICAL COMPOSITION COMPRISING SAME AS ACTIVE INGREDIENT” (VORONOI INC., priority 2021, published 2024).

Tests used:
BT-474 cancer cells = assay: Inhibitory activity against proliferation of BT-474 cancer cells (CellTiter-Glo); assay type: cell-based; details: Homo sapiens, BT-474 ErbB2-overexpressing cancer cells, 120 hours after treatment
In short: (§1)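 Cells seeded 48 h before dosing (SK-BR-3 in McCOY'S 5A + 10% FBS; BT-474 in RPMI-1640 + 20% FBS), then exposed 120 h to 12 concentrations, 0.2 nM-5 μM final. Viability by CellTiter-Glo luminescence; GI50 from growth rate vs control, triplicate runs.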

SK-BR-3 cancer cells = assay: Inhibitory activity against proliferation of SK-BR-3 cancer cells (CellTiter-Glo); assay type: cell-based; details: Homo sapiens, SK-BR-3, 120 h, ErbB2-overexpressing SK-BR-3 cells, 120 hours after treatment
In short: as §1

SMILES	GI50 (BT-474 cancer cells)	GI50 (SK-BR-3 cancer cells)
C=CC(=O)Nc1cc(Nc2cc(N3OCC[C@@H]3c3cccc(C#CC(C)(C)O)c3)ncn2)c(OC)cc1N(C)CCN(C)C [Example 309, (R)-N-(2-((2-(dimethylamino)-ethyl)(methyl)-amino)-5-((6-(3-(3-(3-hydroxy-3-methylbut-1-yn-1-yl)phenyl)isoxazol-idin-2-yl)pyrim-idin-4-yl)amino)-4-methoxyphen-yl)acrylamide]	< 50 nM	< 50 nM
C=CC(=O)Nc1cc(Nc2cc(N3OCC[C@@H]3c3ccc(F)c(-c4cccc(F)c4)c3)ncn2)c(OC)cc1N(C)CCN(C)C [Example 310, (R)-N-(5-((6-(3-(3′,6-difluoro-[1,1′-biphenyl]-3-yl)-isoxazolidin-2-yl)-pyrimidin-4-yl)-amino)-2-((2-(dimethylamino)-ethyl)(methyl)-amino)-4-methoxy-phenyl)acrylamide]	< 50 nM	< 50 nM
C=CC(=O)Nc1cc(Nc2cc(N3OCC[C@@H]3c3cccc(C#Cc4cccc(F)c4)c3)ncn2)c(OC)cc1N1CCN(C)CC1 [Example 314, (R)-N-(5-((6-(3-(3-((3-fluorophen-yl)ethynyl)phenyl)-isoxazolidin-2-yl)-pyrimidin-4-yl)-amino)-4-methoxy-2-(4-methylpiper-azin-1-yl)phenyl)-acrylamide]	50 to 500 nM	50 to 500 nM
C=CC(=O)Nc1cc(Nc2cc(N3OCC[C@@H]3c3cccc(C#Cc4cccc(O)c4)c3)ncn2)c(OC)cc1N1CCN(C)CC1 [Example 315, (R)-N-(5-((6-(3-(3-((3-hydroxy-phenyl)ethynyl)-phenyl)isoxazol-idin-2-yl)pyrim-idin-4-yl)amino)-4-methoxy-2-(4-methylpiperazin-1-yl)phenyl)acryl-amide]	50 to 500 nM	500 to 5000 nM
C=CC(=O)Nc1cc(Nc2cc(N3OCC[C@@H]3c3cccc(-c4cccc(F)c4)c3)ncn2)c(OC)cc1N1CCC(N2CCC2)CC1 [Example 317, (R)-N-(2-(4-(azeti-din-1-yl)piperidin-1-yl)-5-((6-(3-(3′-fluoro-[1,1′-biphen-yl]-3-yl)isoxazol-idin-2-yl)pyrim-idin-4-yl)amino)-4-methoxyphen-yl)acrylamide]	< 50 nM	< 50 nM
C=CC(=O)Nc1cc(Nc2cc(N3OCC[C@@H]3c3cccc(-c4cccc(F)c4)c3)ncn2)c(OC)cc1N1CCN2CCCC2C1 (stereo partly drawn) [Example 318, N-(5-((6-((R)-3-(3′-fluoro-[1,1′-biphenyl]-3-yl)-isoxazolidin-2-yl)-pyrimidin-4-yl)-amino)-2-(hexa-hydropyrrolo[1,2-a]pyrazin-2(1H)-yl)-4-methoxy-phenyl)acrylamide]	< 50 nM	50 to 500 nM
C=CC(=O)Nc1cc(Nc2cc(N3OCC[C@@H]3c3cccc(-c4cccc(F)c4)c3)ncn2)c(OC)cc1N1CCN(C2CC2)[C@@H](C)C1 [Example 320, N-(2-((S)-4-cyclo-propyl-3-methyl-piperazin-1-yl)-5-((6-((R)-3-(3′-fluoro-[1,1′-biphen-yl]-3-yl)isoxazol-idin-2-yl)pyrim-idin-4-yl)amino)-4-methoxyphen-yl)acrylamide]	< 50 nM	< 50 nM
C=CC(=O)Nc1cc(Nc2cc(N3OCC[C@@H]3c3cccc(-c4cccc(F)c4)c3)ncn2)c(OC)cc1N1CC2(C1)CN(S(C)(=O)=O)C2 [Example 322, (R)-N-(5-((6-(3-(3′-fluoro-[1,1′-biphenyl]-3-yl)-isoxazolidin-2-yl)-pyrimidin-4-yl)-amino)-4-methoxy-2-(6-(methylsulfon-yl)-2,6-diazaspiro-[3.3]heptan-2-yl)-phenyl)acrylamide]	< 50 nM	< 50 nM
C=CC(=O)Nc1cc(Nc2cc(N3OCC[C@@H]3c3cccc(-c4cccc(F)c4)c3)ncn2)c(OC)cc1N1CC2(CN(C(=O)COC)C2)C1 [Example 323, (R)-N-(5-((6-(3-(3′-fluoro-[1,1′-biphenyl]-3-yl)-isoxazolidin-2-yl)-pyrimidin-4-yl)-amino)-4-methoxy-2-(6-(2-methoxy-acetyl)-2,6-diaza-spiro[3.3]heptan-2-yl)phenyl)acryl-amide]	< 50 nM	50 to 500 nM
C=CC(=O)Nc1cc(Nc2cc(N3OCC[C@@H]3c3cccc(-c4cccc(F)c4)c3)ncn2)c(OC)cc1N1CCC(N2CCN(S(C)(=O)=O)CC2)CC1 [Example 324, (R)-N-(5-((6-(3-(3′-fluoro-[1,1′-biphenyl]-3-yl)-isoxazolidin-2-yl)-pyrimidin-4-yl)-amino)-4-methoxy-2-(4-(4-(methyl-sulfonyl)piperazin-1-yl)piperidin-1-yl)-phenyl)acrylamide]	< 50 nM	< 50 nM
C=CC(=O)Nc1cc(Nc2cc(N3OCCC3c3cccc(OCc4ccccn4)c3)ncn2)c(OC)cc1N(C)CCN(C)C (stereo not shown) [Example compound 95, N-(2-((2-(dimethylamino)ethyl)(methyl)amino)-4-methoxy-5-((6-(3-(3-(pyridin-2-ylmethoxy)phenyl)isoxazolidin-2-yl)pyrimidin-4-yl)amino)phenyl)acrylamide]	< 50 nM	< 50 nM
C=CC(=O)Nc1cc(Nc2cc(N3OCCC3c3cccc(OCc4ccccn4)c3)ncn2)c(OC)cc1N1CCN(C)CC1 (stereo not shown) [Example compound 96, N-(4-methoxy-2-(4-methylpiperazin-1-yl)-5-((6-(3-(3-(pyridin-2-ylmethoxy)phenyl)isoxazolidin-2-yl)pyrimidin-4-yl)amino)phenyl)acrylamide]	< 50 nM	< 50 nM
C=CC(=O)Nc1cc(Nc2cc(N3OCCC3c3cccc(OCc4ccccn4)c3)ncn2)c(OC)cc1N1CCC(N2CCN(C3CC3)CC2)CC1 (stereo not shown) [Example compound 98, N-(2-(4-(4-cyclopropylpiperazin-1-yl)piperidin-1-yl)-4-methoxy-5-((6-(3-(3-(pyridin-2-ylmethoxy)phenyl)isoxazolidin-2-yl)pyrimidin-4-yl)amino)phenyl)acrylamide]	< 50 nM	< 50 nM
C=CC(=O)Nc1cc(Nc2cc(N3OCCC3c3ccc(Cl)c(OCc4cccc(F)c4)c3)ncn2)c(OC)cc1N1CCC(N2CCN(C3CC3)CC2)CC1 (stereo not shown) [Example compound 116, N-(5-((6-(3-(4-chloro-3-((3-fluorobenzyl)oxy)phenyl)isoxazolidin-2-yl)pyrimidin-4-yl)amino)-2-(4-(4-cyclopropylpiperazin-1-yl)piperidin-1-yl)-4-methoxyphenyl)acrylamide]	50 to 500 nM	< 50 nM
C=CC(=O)Nc1cc(Nc2cc(N3OCC[C@@H]3c3cccc(-c4cccs4)c3)ncn2)c(OC)cc1N1CCC(N2CCN(C3CC3)CC2)CC1 [Example compound 135, (R)-N-(2-(4-(4-cyclopropylpiperazin-1-yl)piperidin-1-yl)-4-methoxy-5-((6-(3-(3-(thiophen-2-yl)phenyl)isoxazolidin-2-yl)pyrimidin-4-yl)amino)phenyl)acrylamide]	< 50 nM	< 50 nM
C=CC(=O)Nc1cc(Nc2cc(N3OCCC3c3ccc(F)c(OCc4cccc(F)c4)c3)ncn2)c(OC)cc1N1CCC(N2CCN(C3CC3)CC2)CC1 (stereo not shown) [Example compound 150, N-(2-(4-(4-cyclopropylpiperazin-1-yl)piperidin-1-yl)-5-((6-(3-(4-fluoro-3-((3-fluorobenzyl)oxy)phenyl)isoxazolidin-2-yl)pyrimidin-4-yl)amino)-4-methoxyphenyl)acrylamide]	< 50 nM	< 50 nM
C=CC(=O)Nc1cc(Nc2cc(N3OCCC3c3ccc(F)c(OCc4cccc(F)c4)c3)ncn2)c(OC)cc1N1CCN(C)CC1 (stereo not shown) [Example compound 151, N-(5-((6-(3-(4-fluoro-3-((3-fluorobenzyl)oxy)phenyl)isoxazolidin-2-yl)pyrimidin-4-yl)amino)-4-methoxy-2-(4-methylpiperazin-1-yl)phenyl)acrylamide]	< 50 nM	< 50 nM
